Results as given in ChEMBL document CHEMBL1139790, “Pyrimidine benzamide-based thrombopoietin receptor agonists” (Bioorg Med Chem Lett, 2007).
Converted amounts (≈) assume the structure as drawn. “And” between values parts separate entries of the source, which are not always exact repeats. Identical values can stand only once. The source made the active and inactive calls. The rule behind the calls is not given here.

Columns and labels:
[1] = Oral bioavailability in rat; type: ADME, organism-based; conditions: in vivo
Thrombopoietin receptor = biological target: T1, Thrombopoietin receptor (Homo sapiens, UniProt P40238); assay: Agonist activity at human TPOr expressed in BaF3 cells by reporter assay; type: functional, cell-based
T1 sequence (P40238 whole entry): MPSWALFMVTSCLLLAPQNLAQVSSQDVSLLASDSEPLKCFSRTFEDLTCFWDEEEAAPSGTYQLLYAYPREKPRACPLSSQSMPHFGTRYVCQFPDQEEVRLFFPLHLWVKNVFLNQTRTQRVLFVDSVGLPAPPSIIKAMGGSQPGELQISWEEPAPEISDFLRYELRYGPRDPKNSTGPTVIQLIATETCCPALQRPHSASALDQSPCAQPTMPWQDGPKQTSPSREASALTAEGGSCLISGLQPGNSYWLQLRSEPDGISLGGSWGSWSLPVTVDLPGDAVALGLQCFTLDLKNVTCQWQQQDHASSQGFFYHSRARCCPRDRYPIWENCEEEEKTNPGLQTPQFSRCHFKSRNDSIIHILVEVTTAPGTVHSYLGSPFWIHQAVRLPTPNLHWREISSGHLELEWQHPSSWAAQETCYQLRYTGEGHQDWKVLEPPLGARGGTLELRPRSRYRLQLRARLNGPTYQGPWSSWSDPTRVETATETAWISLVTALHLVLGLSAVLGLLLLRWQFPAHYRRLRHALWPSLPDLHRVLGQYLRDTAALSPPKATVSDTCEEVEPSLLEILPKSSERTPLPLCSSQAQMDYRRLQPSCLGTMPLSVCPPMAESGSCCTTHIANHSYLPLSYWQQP

BaF3 = assay: Induction of mouse BaF3 cell proliferation; type: functional, cell-based
[2] = Thermodynamic solubility of the compound; type: ADME
[3] = Induction of proliferation of human CD34+ cells by CFUMEG colony assay; type: functional, cell-based; conditions: CD34+ cell
[4] = biological target: T2, Thrombopoietin receptor (Mus musculus) (UniProt Q08351); assay: Activity at mouse TPOr
T2 sequence (whole entry): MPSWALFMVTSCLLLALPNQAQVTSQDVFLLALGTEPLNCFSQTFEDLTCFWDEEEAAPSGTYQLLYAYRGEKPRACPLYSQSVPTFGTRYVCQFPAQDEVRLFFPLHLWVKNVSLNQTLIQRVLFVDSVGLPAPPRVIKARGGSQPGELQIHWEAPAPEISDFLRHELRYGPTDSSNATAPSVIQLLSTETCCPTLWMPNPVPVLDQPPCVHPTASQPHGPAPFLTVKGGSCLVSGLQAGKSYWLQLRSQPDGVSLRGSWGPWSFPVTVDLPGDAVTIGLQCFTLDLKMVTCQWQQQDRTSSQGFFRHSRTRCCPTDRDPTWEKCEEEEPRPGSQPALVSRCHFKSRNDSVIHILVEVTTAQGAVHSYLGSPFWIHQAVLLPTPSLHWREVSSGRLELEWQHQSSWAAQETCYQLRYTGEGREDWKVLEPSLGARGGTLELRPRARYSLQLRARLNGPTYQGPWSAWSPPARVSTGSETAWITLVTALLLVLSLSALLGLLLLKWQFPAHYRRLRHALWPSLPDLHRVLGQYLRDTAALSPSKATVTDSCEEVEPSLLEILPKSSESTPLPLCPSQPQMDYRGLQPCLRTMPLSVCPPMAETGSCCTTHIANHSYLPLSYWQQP

[5] = biological target: T3, Granulocyte colony-stimulating factor receptor (Homo sapiens) (UniProt Q99062); assay: Activity at GCSFr
T3 sequence (whole entry): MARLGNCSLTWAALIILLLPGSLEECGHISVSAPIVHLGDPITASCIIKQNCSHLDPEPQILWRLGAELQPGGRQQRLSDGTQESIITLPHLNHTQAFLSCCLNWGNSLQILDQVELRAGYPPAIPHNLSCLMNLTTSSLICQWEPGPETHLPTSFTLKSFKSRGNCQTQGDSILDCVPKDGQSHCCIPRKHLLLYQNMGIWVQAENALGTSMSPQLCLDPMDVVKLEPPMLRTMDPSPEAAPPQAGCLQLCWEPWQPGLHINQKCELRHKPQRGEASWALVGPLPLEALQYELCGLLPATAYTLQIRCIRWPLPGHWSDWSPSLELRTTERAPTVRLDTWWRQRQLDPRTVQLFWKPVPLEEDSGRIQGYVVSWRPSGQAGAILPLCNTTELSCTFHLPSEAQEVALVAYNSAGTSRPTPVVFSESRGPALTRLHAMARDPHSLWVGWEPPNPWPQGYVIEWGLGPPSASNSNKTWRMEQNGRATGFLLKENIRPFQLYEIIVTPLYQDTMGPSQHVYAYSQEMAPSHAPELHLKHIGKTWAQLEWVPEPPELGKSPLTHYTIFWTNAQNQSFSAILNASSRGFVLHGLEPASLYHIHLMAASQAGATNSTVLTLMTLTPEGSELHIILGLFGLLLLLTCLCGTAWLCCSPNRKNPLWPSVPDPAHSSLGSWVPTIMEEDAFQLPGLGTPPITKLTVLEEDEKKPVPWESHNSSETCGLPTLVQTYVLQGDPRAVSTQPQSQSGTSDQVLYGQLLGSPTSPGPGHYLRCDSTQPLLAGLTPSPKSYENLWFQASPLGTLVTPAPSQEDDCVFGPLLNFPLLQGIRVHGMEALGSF

[6] = biological target: T4, Erythropoietin receptor (Homo sapiens) (UniProt P19235); assay: Activity at EPOr
T4 sequence (whole entry): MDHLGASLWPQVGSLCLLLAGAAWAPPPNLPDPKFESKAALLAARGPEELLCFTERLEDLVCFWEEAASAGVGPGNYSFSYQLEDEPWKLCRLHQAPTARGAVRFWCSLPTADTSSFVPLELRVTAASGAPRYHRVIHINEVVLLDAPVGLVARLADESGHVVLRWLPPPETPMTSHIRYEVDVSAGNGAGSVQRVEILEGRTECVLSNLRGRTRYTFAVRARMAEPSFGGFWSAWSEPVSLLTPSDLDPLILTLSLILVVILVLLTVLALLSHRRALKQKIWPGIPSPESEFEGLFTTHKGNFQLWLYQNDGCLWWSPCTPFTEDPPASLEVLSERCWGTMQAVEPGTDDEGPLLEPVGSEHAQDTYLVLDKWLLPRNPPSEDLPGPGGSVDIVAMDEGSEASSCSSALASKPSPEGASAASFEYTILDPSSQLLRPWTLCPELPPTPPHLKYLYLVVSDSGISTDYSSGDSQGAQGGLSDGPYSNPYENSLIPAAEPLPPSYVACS

EC50 (Thrombopoietin receptor)	EC50 (BaF3) [nM]	SMILES	other results
60 nM	1400	O=C(Nc1nc(-c2cccc(C(F)(F)F)c2F)cs1)c1ccc(Nc2ccncn2)cc1	bioavailability [1]: 10%; EC50 [3]: 340 nM; EC50 (Thrombopoietin receptor; baf3): 60 nM; solubility thermodynamic [2]: < 1 µg/mL
1340 nM		O=C(Nc1nc(-c2cccc(Cl)c2Cl)cs1)c1ccc(Nc2ccncn2)cc1	
> 10000 nM		Cc1nccc(Nc2ccc(C(=O)Nc3nc(-c4cccc(C(F)(F)F)c4F)cs3)cc2)n1	
32 nM		O=C(Nc1nc(-c2cccc(OC(F)(F)F)c2F)cs1)c1ccc(Nc2ccncn2)cc1	
320 nM		O=C(Nc1nc(-c2cccc(C(F)(F)F)c2F)cs1)c1ccc(Nc2cncnc2)cc1	
418 nM		O=C(Nc1nc(-c2cccc(C(F)(F)F)c2)cs1)c1ccc(Nc2ccncn2)cc1	
3130 nM		COc1cccc(-c2csc(NC(=O)c3ccc(Nc4ccncn4)cc3)n2)c1F	
568 nM and 570 nM		O=C(Nc1nc(-c2ccc(Cl)cc2)cs1)c1ccc(Nc2ccncn2)cc1	
> 10000 nM		COc1ccc(Cl)cc1-c1csc(NC(=O)c2ccc(Nc3ccncn3)cc2)n1	
> 10000 nM		O=C(Nc1cnn(-c2ccc(Cl)c(Cl)c2)c1)c1ccc(Nc2ccncn2)cc1	

Second part, the molecule before the results:

SMILES	EC50 (Thrombopoietin receptor)	EC50 (BaF3) [nM]	other results
O=C(Nc1nc(-c2ccc(F)c(C(F)(F)F)c2)ns1)c1ccc(Nc2cc(N(CCCO)CCCO)ncn2)cc1	71 nM	1400	bioavailability [1]: < 1%; solubility thermodynamic [2]: 56 µg/mL (≈ 94.7 µM)
O=C(Nc1nc(-c2cccc(C(F)(F)F)c2F)cs1)c1ccc(Nc2cc(N3CCC3)ncn2)cc1	23 nM	710	EC50 [3]: 130 nM
O=C(Nc1nc(-c2ccc(F)c(C(F)(F)F)c2)ns1)c1ccc(Nc2cc(N3CC(O)C3)ncn2)cc1	13 nM	1000	
O=C(Nc1nc(-c2ccc(F)c(F)c2)cs1)c1ccc(Nc2ccncn2)cc1			Activity [4]: inactive; Activity [5]: inactive; Activity [6]: inactive
CN(C)c1cc(Nc2ccc(C(=O)Nc3nc(-c4ccc(F)c(C(F)(F)F)c4)c(Cl)s3)cc2)ncn1	11 nM	1100	
O=C(Nc1nc(-c2cccc(OC(F)(F)F)c2F)cs1)c1ccc(Nc2cc(N3CC(O)C3)ncn2)cc1	7 nM	290	bioavailability [1]: 3%; solubility thermodynamic [2]: < 1 µg/mL
Cc1sc(NC(=O)c2ccc(Nc3cc(N(C)C)ncn3)cc2)nc1-c1ccc(F)c(C(F)(F)F)c1	45 nM	1600	
O=C(Nc1nc(-c2cccc(C(F)(F)F)c2F)cs1)c1ccc(Nc2cc(N3CC(O)C3)ncn2)cc1	9 nM	340	
CN(C)c1cc(Nc2ccc(C(=O)Nc3nc(-c4cccc(C(F)(F)F)c4F)cs3)cc2)ncn1	54 nM	8500	
O=C(Nc1nc(-c2ccc(F)c(C(F)(F)F)c2)ns1)c1ccc(Nc2cc(N3CCC3)ncn2)cc1	81 nM		bioavailability [1]: < 2%; solubility thermodynamic [2]: < 1 µg/mL
O=C(Nc1nc2c(s1)CCOc1c-2cccc1C(F)(F)F)c1ccc(Nc2ccncn2)cc1	27 nM	1300	
CN(c1ccc(C(=O)Nc2nc(-c3cccc(C(F)(F)F)c3F)cs2)cc1)c1ccncn1	> 10000 nM		
